The values below come from PMC12720125 (Redox Biology, 2025).

Structures are written as SMILES.

Assay [1] addresses T1, lymphoid-specific helicase (LSH) (Homo sapiens, UniProt Q9NRZ9).
T1 sequence (Q9NRZ9 1-838): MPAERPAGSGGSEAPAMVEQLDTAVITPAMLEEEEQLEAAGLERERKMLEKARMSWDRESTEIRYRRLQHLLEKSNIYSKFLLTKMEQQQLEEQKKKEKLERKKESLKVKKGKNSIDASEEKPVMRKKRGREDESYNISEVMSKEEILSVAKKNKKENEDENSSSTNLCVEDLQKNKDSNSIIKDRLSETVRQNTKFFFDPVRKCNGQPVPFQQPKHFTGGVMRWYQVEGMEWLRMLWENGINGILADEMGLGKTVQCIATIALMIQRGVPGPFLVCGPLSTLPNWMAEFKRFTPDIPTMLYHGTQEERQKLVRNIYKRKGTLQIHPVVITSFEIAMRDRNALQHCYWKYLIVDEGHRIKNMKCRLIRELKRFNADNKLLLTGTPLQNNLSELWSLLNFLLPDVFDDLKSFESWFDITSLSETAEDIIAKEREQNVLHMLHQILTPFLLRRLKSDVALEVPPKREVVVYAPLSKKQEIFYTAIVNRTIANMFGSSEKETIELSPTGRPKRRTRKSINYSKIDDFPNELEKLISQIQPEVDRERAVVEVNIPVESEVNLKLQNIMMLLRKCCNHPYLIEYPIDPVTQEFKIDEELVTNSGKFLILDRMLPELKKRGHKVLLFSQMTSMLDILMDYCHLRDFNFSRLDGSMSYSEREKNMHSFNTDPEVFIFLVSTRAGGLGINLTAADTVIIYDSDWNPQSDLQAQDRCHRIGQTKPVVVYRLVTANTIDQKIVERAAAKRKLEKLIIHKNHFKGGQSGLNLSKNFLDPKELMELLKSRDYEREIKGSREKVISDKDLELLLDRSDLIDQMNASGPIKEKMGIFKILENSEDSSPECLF
Nature of the assay: SPR. It is filed as binding.

In assay [2] the target is T1, lymphoid-specific helicase (LSH). Nature of the assay: KD determination, SPR. It is filed as binding.

In general, Kd refers to a measure of binding affinity in units of concentration. `C=C1C(=O)O[C@@H]2O[C@@]3(C)CC[C@H]4[C@H](C)CC[C@@H]1[C@@]24OO3` [ATT, artemisitene] came in with a Kd in assay [1] of 6.18 µM.
In assay [2], `C[C@@H]1CC[C@H]2[C@@H](C)C(=O)O[C@@H]3O[C@@]4(C)CC[C@@H]1[C@]32OO4` [artemisinin] registered a Kd of 32.2 µM.
